Target: CFTR-mediated chloride transport (Homo sapiens, UniProt P13569)
Assay: Corrector Assay A - membrane potential dye assay (enteroid cells)
Settings: for EC50: read-out: Corrector Assay A EC50, human intestinal enteroid cells, 18-24 h incubation, acute 10 μM forskolin + 300 nM ivacaftor
[1] = % of chloride transport of triple combination control (1 μM (14S)-dispiro macrocycle + 3 μM tezacaftor + 300 nM ivacaftor)

SMILES	Corrector Assay A % activity [1]	EC50 [nM]	Corrector Assay A % activity (given as a number, not a class symbol, % of triple combination control) [%]
CC(C)(C)c1ccc2c(n1)N1C[C@@H](CCC(CCC(C3CC3)C3CC3)Nc3cccc(n3)S(=O)(=O)NC2=O)CC1(C)C (single isomer, unassigned) [Compound 52]	++ (++ is 30-60%)	< 1000	
CC(C)(C)c1ccc2c(n1)N1C[C@@H](CC[C@@H](c3ncccc3Br)Nc3cccc(n3)S(=O)(=O)NC2=O)CC1(C)C (single isomer, unassigned) [Compound 53]	+++ (+++ is >60%)	< 1000	
CC(C)(C)NCc1ccnc([C@@H]2CC[C@@H]3CN(c4nc(C(C)(C)C)ccc4C(=O)NS(=O)(=O)c4cccc(n4)N2)C(C)(C)C3)c1 (single isomer, unassigned) [Compound 61]	+++ (+++ is >60%)	< 1000	
CC(C)(C)NCc1ccnc([C@@H]2CC[C@@H]3CN(c4nc(C(C)(C)C)ccc4C(=O)NS(=O)(=O)c4cccc(n4)N2)C(C)(C)C3)c1 (single isomer, unassigned) [Compound 62]	++ (++ is 30-60%)	1000 to 3000	
CC(C)(C)c1ccc2c(n1)N1C[C@@H](CCC(c3ncccc3Cl)Nc3cccc(n3)S(=O)(=O)NC2=O)CC1(C)C (single isomer, unassigned) [Compound 66]	+ (+ is <30%)	> 3000	
CC(C)(C)c1ccc2c(n1)N1C[C@@H](CC[C@@H](c3cc(-c4cc[nH]n4)ccn3)Nc3cccc(n3)S(=O)(=O)NC2=O)CC1(C)C (single isomer, unassigned) [Compound 74]	++ (++ is 30-60%)	< 1000	
CC(C)(C)c1ccnc(C2CC[C@@H]3CN(c4nc(C(C)(C)C)ccc4C(=O)NS(=O)(=O)c4cccc(n4)N2)C(C)(C)C3)c1 (single isomer, unassigned) [Compound 75]	+++ (+++ is >60%)	< 1000	
CC(C)(C)c1ccnc(C2CC[C@@H]3CN(c4nc(C(C)(C)C)ccc4C(=O)NS(=O)(=O)c4cccc(n4)N2)C(C)(C)C3)c1 (single isomer, unassigned) [Compound 76]	++ (++ is 30-60%)	< 1000	
CC(C)(C)c1ccc2c(n1)N1C[C@@H](CCC(c3cc(C(N)=O)ccn3)Nc3cccc(n3)S(=O)(=O)NC2=O)CC1(C)C (single isomer, unassigned) [Compound 82]	++ (++ is 30-60%)	< 1000	
CC(C)(C)c1ccc2c(n1)N1C[C@@H](CCC(c3cc(C(N)=O)ccn3)Nc3cccc(n3)S(=O)(=O)NC2=O)CC1(C)C (single isomer, unassigned) [Compound 83]	++ (++ is 30-60%)	< 1000	
CN(C)Cc1ccnc([C@@H]2CC[C@@H]3CN(c4nc(C(C)(C)C)ccc4C(=O)NS(=O)(=O)c4cccc(n4)N2)C(C)(C)C3)c1 (single isomer, unassigned) [Compound 86]	++ (++ is 30-60%)	< 1000	
CC(C)(C)c1ccc2c(n1)N1C[C@@H](CC[C@H](c3cc(C(F)(F)F)ccn3)Nc3cccc(n3)S(=O)(=O)NC2=O)CC1(C)C (single isomer, unassigned) [Compound 93]	+++ (+++ is >60%)	< 1000	
COC(=O)NCc1ccnc(C2CC[C@@H]3CN(c4nc(C(C)(C)C)ccc4C(=O)NS(=O)(=O)c4cccc(n4)N2)C(C)(C)C3)c1 (single isomer, unassigned) [Compound 107]	++ (++ is 30-60%)	< 1000	
COC(=O)NCc1ccnc(C2CC[C@@H]3CN(c4nc(C(C)(C)C)ccc4C(=O)NS(=O)(=O)c4cccc(n4)N2)C(C)(C)C3)c1 (single isomer, unassigned) [Compound 108]	++ (++ is 30-60%)	< 1000	
CC(C)(C)c1ccc2c(n1)N1C[C@@H](CCC(c3cc(CCCN)ccn3)Nc3cccc(n3)S(=O)(=O)NC2=O)CC1(C)C (single isomer, unassigned) [Compound 109]	+++ (+++ is >60%)	< 1000	
CC(C)(C)c1ccc2c(n1)N1C[C@@H](CCC(c3cc(CCCN)ccn3)Nc3cccc(n3)S(=O)(=O)NC2=O)CC1(C)C (single isomer, unassigned) [Compound 110]	+ (+ is <30%)	> 3000	
CC(C)(C)OC(=O)NCc1ccnc(C2CC[C@@H]3CN(c4nc(C(C)(C)C)ccc4C(=O)NS(=O)(=O)c4cccc(n4)N2)C(C)(C)C3)c1 (single isomer, unassigned) [Compound 119]	+++ (+++ is >60%)	< 1000	
CC(C)(C)OC(=O)NCc1ccnc(C2CC[C@@H]3CN(c4nc(C(C)(C)C)ccc4C(=O)NS(=O)(=O)c4cccc(n4)N2)C(C)(C)C3)c1 (single isomer, unassigned) [Compound 120]	+++ (+++ is >60%)	< 1000	

More lines, now with the values ahead:

Corrector Assay A % activity [1]	EC50 [nM]	Corrector Assay A % activity (given as a number, not a class symbol, % of triple combination control) [%]	SMILES
+ (+ is <30%)	> 3000		CC(C)(C)c1ccc2c(n1)N1C[C@@H](CCC(CCC(C3CC3)C3CC3)Nc3cccc(n3)S(=O)(=O)NC2=O)CC1(C)C (single isomer, unassigned) [Compound 51]
+ (+ is <30%)	> 3000		CC(C)(C)c1ccc2c(n1)N1C[C@@H](CC[C@@H](c3ncccc3Br)Nc3cccc(n3)S(=O)(=O)NC2=O)CC1(C)C (single isomer, unassigned) [Compound 54]
++ (++ is 30-60%)	< 1000		CC(C)(C)c1ccc2c(n1)N1C[C@@H](CCC(c3ncccc3Cl)Nc3cccc(n3)S(=O)(=O)NC2=O)CC1(C)C (single isomer, unassigned) [Compound 65]
+++ (+++ is >60%)	< 1000		CC(C)(C)c1ccc2c(n1)N1C[C@@H](CC[C@@H](c3cc(-c4cn[nH]c4)ccn3)Nc3cccc(n3)S(=O)(=O)NC2=O)CC1(C)C (single isomer, unassigned) [Compound 68]
++ (++ is 30-60%)	< 1000		CC(C)(C)c1ccc2c(n1)N1C[C@@H](CC[C@@H](c3cc(-c4cn[nH]c4)ccn3)Nc3cccc(n3)S(=O)(=O)NC2=O)CC1(C)C (single isomer, unassigned) [Compound 69]
+++ (+++ is >60%)	< 1000		CC(C)(C)c1ccc2c(n1)N1C[C@@H](CC[C@@H](c3cc(-c4cc[nH]n4)ccn3)Nc3cccc(n3)S(=O)(=O)NC2=O)CC1(C)C (single isomer, unassigned) [Compound 73]
++ (++ is 30-60%)	< 1000		CC(C)(C)c1ccc2c(n1)N1C[C@@H](CC[C@H](c3ccc(C(F)(F)F)cn3)Nc3cccc(n3)S(=O)(=O)NC2=O)CC1(C)C (single isomer, unassigned) [Compound 80]
+ (+ is <30%)	< 1000		CC(C)(C)c1ccc2c(n1)N1C[C@@H](CC[C@@H](c3ccc(C(F)(F)F)cn3)Nc3cccc(n3)S(=O)(=O)NC2=O)CC1(C)C (single isomer, unassigned) [Compound 81]
+++ (+++ is >60%)	< 1000		CC(C)(C)c1ccc2c(n1)N1C[C@@H](CC[C@@H](c3cc(CCN)ccn3)Nc3cccc(n3)S(=O)(=O)NC2=O)CC1(C)C (single isomer, unassigned) [Compound 84]
++ (++ is 30-60%)	< 1000		CC(C)(C)c1ccc2c(n1)N1C[C@@H](CC[C@@H](c3cc(CCN)ccn3)Nc3cccc(n3)S(=O)(=O)NC2=O)CC1(C)C (single isomer, unassigned) [Compound 85]
+ (+ is <30%)	< 1000		CN(C)Cc1ccnc([C@@H]2CC[C@@H]3CN(c4nc(C(C)(C)C)ccc4C(=O)NS(=O)(=O)c4cccc(n4)N2)C(C)(C)C3)c1 (single isomer, unassigned) [Compound 87]
	< 1000	52.5	CC(C)(C)c1ccc2c(n1)N1C[C@@H](CC[C@@H](c3cc(C(F)(F)F)ccn3)Nc3cccc(n3)S(=O)(=O)NC2=O)CC1(C)C (single isomer, unassigned) [Compound 92]
++ (++ is 30-60%)	< 1000		CC(C)(C)c1ccc2c(n1)N1C[C@@H](CC[C@H](c3cccc(C(F)(F)F)n3)Nc3cccc(n3)S(=O)(=O)NC2=O)CC1(C)C (single isomer, unassigned) [Compound 94]
++ (++ is 30-60%)	< 1000		CC(C)(C)c1ccc2c(n1)N1C[C@@H](CC[C@@H](c3cccc(C(F)(F)F)n3)Nc3cccc(n3)S(=O)(=O)NC2=O)CC1(C)C (single isomer, unassigned) [Compound 95]
+++ (+++ is >60%)	< 1000		CC(C)(C)c1ccc2c(n1)N1C[C@@H](CCC(c3cc(CN)ccn3)Nc3cccc(n3)S(=O)(=O)NC2=O)CC1(C)C (single isomer, unassigned) [Compound 115]
+++ (+++ is >60%)	< 1000		CC(C)(C)c1ccc2c(n1)N1C[C@@H](CCC(c3cc(CN)ccn3)Nc3cccc(n3)S(=O)(=O)NC2=O)CC1(C)C (single isomer, unassigned) [Compound 116]
+++ (+++ is >60%)	< 1000		CC(C)(C)c1ccc2c(n1)N1C[C@@H](CC[C@@H](c3cc(C4CCOCC4)ccn3)Nc3cccc(n3)S(=O)(=O)NC2=O)CC1(C)C (single isomer, unassigned) [Compound 121]
++ (++ is 30-60%)	< 1000		CC(C)(C)c1ccc2c(n1)N1C[C@@H](CC[C@@H](c3cc(C4CCOCC4)ccn3)Nc3cccc(n3)S(=O)(=O)NC2=O)CC1(C)C (single isomer, unassigned) [Compound 122]
+++ (+++ is >60%)	< 1000		CC(C)(C)c1ccc2c(n1)N1C[C@@H](CC[C@@H](c3cc(C4=CCOCC4)ccn3)Nc3cccc(n3)S(=O)(=O)NC2=O)CC1(C)C (single isomer, unassigned) [Compound 125]
